Structures can show the parent of a compound that is named as a salt.
experiment: not given; settings: background statement, no conditions given; cited from earlier work

Molecule | Hygroscopicity of known salts
C[N+](C)(C)C[C@H](O)CC(=O)O.C[N+](C)(C)C[C@H](O)CC(=O)O.O=C([O-])C(O)C(O)C(=O)[O-] [L(−)-carnitine tartrate] | non-hygroscopic
CC(=O)O[C@H](CC(=O)O)C[N+](C)(C)C.O=C([O-])/C=C/C(=O)O [acetyl L(−)-carnitine acid fumarate] | strongly hygroscopic
L(−)-carnitine acid fumarate | non-hygroscopic

experiment: Hygroscopicity: increase in weight and appearance after exposure to humidity; type: physicochemical; settings: exposure to 70±5% relative humidity, at 25° C. for 24 hours

Molecule | Appearance | Increase in weight (%)
CC(=O)O[C@H](CC(=O)O)C[N+](C)(C)C.[Cl-] [Acetyl-L-carnitine chloride] | clumped mass | 8%
CC(=O)O[C@H](CC(=O)[O-])C[N+](C)(C)C [Acetyl-L-carnitine inner salt] | deliquescent | 19%
C[N+](C)(C)C[C@H](O)CC(=O)[O-] [L-carnitine inner salt] | deliquescent | 23%
